Drawing on the METLIN SMRT retention time set (Domingo-Almenara et al. 2019), this text covers RP-LC retention time for 80 compounds.

This series is described as follows: gradient 5% acetonitrile 3 min, to 50% in 2 min, to 85% in 15 min, held 3 min, 100 µL/min. The note with it: column: Zorbax Extend-C18 2.1 x 50 mm; eluents: water / acetonitrile, 0.1% formic acid. A digest of the protocol:
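In both positive and negative ionization mode, a quadrupole time-of-flight mass spectrometer coupled to HPLC analyzed pure standards run in mixtures of ~100 molecules. The Zorbax Extend-C18 column (2.1 × 50 mm, 1.8 μm) was operated at 100 μL/min with water and acetonitrile, each containing 0.1% formic acid. The dead volume was 40 μL and the dwell volume 900 μL. Retention time came from adduct peaks that were computationally picked and individually inspected by hand.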
The compound `CCN1CCN(C(=O)c2nc3ccccn3c2-c2ccc(Cl)cc2)CC1` showed an RP-LC retention time of 591 s.

Compound `Cc1noc(C)c1S(=O)(=O)NCCOc1cc(N2CCOCC2)ncn1` showed an RP-LC retention time of 643 s.

`COC(=O)c1c(C)[nH]c(C(=O)N2CCC(CC(=O)NCc3cccc(Br)c3)CC2)c1C` displayed an RP-LC retention time of 800 s.

Regarding `Cc1cc(Cl)ccc1OCC(=O)Nc1nc(-c2cccc3ccccc23)cs1`, the RP-LC retention time stood at 1310 s.

`O=C(NCc1ccccc1)N1CCN(Cc2nc3cc(-c4ccccc4)ccc3o2)CC1` returned an RP-LC retention time of 825 s.

For the compound `CCc1ccc(NS(=O)(=O)c2cc3n(c2)CCCN(C)C3=O)cc1`, the RP-LC retention time came to 739 s.

In the case of `Cc1cc(N2CCN(S(=O)(=O)c3ccccc3Cl)CC2)nc(NC2CCCCC2)n1`, the RP-LC retention time amounted to 838 s.

Turning to `CC(C)NC(=O)CN1C(=O)C2CCCCN2c2ccc(S(=O)(=O)N3CCCCC3)cc21` (stereo not given), the RP-LC retention time came to 850 s.

Compound `CN1c2ccc(F)cc2C(=O)NC12CCN(C(=O)c1ccc(F)c(Cl)c1)CC2` registered an RP-LC retention time of 823 s.

In turn, `CCN(CC)c1cc2c(cc1NC(=O)c1ccco1)n(C)c(=O)c(=O)n2C` came in with an RP-LC retention time of 724 s.

Take `Fc1cc(F)cc(-c2nnc(Cc3nc(-c4ccc5c(c4)OCO5)no3)o2)c1`: the RP-LC retention time is 987 s.

The compound `Cc1nc([N+](=O)[O-])c(Sc2nc3ccccc3[nH]2)n1Cc1ccccc1` registered an RP-LC retention time of 702 s.

Take `CC1CCN(c2cc(-c3noc(C(=O)NC4CCCCCC4)n3)ccn2)CC1`: the RP-LC retention time came to 1010 s.

As to `CCN1C(=O)COc2ccc(-c3nc(NC(=O)c4cccc(Cl)c4)sc3C)cc21`, the RP-LC retention time came out at 1110 s.

Take `O=C(Nc1cccn2nc(C3CCC3)nc12)c1cccs1`: the RP-LC retention time was 861 s.

Turning to `COc1ccc(-c2nnc(SCC(=O)Nc3ccc(C)cc3Br)o2)cc1`, the RP-LC retention time was found to be 986 s.

`O=C(Nc1cccc(Cl)c1)C1CCN(S(=O)(=O)c2ccc3[nH]c(=O)ccc3c2)CC1` displayed an RP-LC retention time of 808 s.

With `CC(C)c1noc(COC2CCN(C(=O)NCc3ccco3)CC2)n1`, the RP-LC retention time came out at 739 s.

With `CCN(CCNS(=O)(=O)c1ccc2[nH]c(=O)ccc2c1)Cc1ccccc1`, the RP-LC retention time is 597 s.

`Cc1cc(SCC(=O)Nc2ccc3c(c2)OCO3)nc(-c2cnccn2)n1`: the RP-LC retention time amounted to 680 s.

`CCOc1ccccc1NC(=O)C1CCCN(c2cnc3nccnc3c2)C1` (stereo not given) showed an RP-LC retention time of 664 s.

With `Cc1ccc(CNC(=O)c2ccc(-c3cncnc3)nc2)cc1C`, the RP-LC retention time was determined as 782 s.

`O=C(CN1CCCc2nc(C3CC3)ncc2C1=O)NCC1CC1` had an RP-LC retention time of 638 s.

`COC(=O)c1c(C)[nH]c(C(=O)N2CCCC(C(=O)NC3CCCCC3)C2)c1C` (stereo not given) gave an RP-LC retention time of 759 s.

As for `Cc1ccc(-c2nsc3c(=O)n(C)c(SCC(=O)N4CCOc5ccc(C)cc54)nc23)cc1`, the RP-LC retention time was determined as 1220 s.

`COc1ccccc1C1(CNC(=O)NC2CCCCC2)CCOCC1` showed an RP-LC retention time of 771 s.

Compound `Cn1c(C(=O)NCCCN2CCCC2=O)cc2c(-c3cccs3)nn(-c3ccccc3)c21` showed an RP-LC retention time of 831 s.

`CNC(=O)C1CCN(C2=NS(=O)(=O)C(c3ccc(C(C)C)cc3)=C2C)CC1` came in with an RP-LC retention time of 777 s.

`CCOc1ccc(C(=O)NC(C)C(=O)Nc2nc3ccccc3[nH]2)cc1` (stereo not given) displayed an RP-LC retention time of 640 s.

As for `Cc1cc(S(=O)(=O)Nc2cccn3c(C4CCC4)nnc23)ccc1F`, the RP-LC retention time was determined as 822 s.

For the compound `Cc1ccc(-c2cc(C(=O)NCCCn3ccnc3)c3ccccc3n2)s1`, the RP-LC retention time is 684 s.

On to `COC(=O)C1=C(CN2CCN(C)CC2)NC(=O)NC1c1ccc(Cl)cc1` (stereo not given), for which the RP-LC retention time stood at 604 s.

Turning to `CCCN1C(=O)c2cc(S(=O)(=O)Nc3ccccc3Cl)ccc2Oc2cccnc21`, the RP-LC retention time came to 1090 s.

On to `Cc1ccc(-n2nc3c(N4CCCC(C(=O)NCCC5=CCCCC5)C4)nnc(C)c3c2C)cc1` (stereo not given), for which the RP-LC retention time turned out to be 865 s.

`CN(C)CCCNC(=O)C1CCN(c2nc3ccc(-c4ccccc4F)nc3s2)CC1` registered an RP-LC retention time of 649 s.

`CC(C)n1c(-c2cccc(C(=O)N3CCC4(CC3)OCCO4)c2)nc2cccnc21` had an RP-LC retention time of 693 s.

As to `Cn1nc(C(=O)NCc2ccc3c(c2)OCO3)c2c1CCN(C(=O)COc1ccc(Cl)cc1)C2`, the RP-LC retention time was 856 s.

`Cc1ccc(C)c2sc(NC(=O)CN(C)S(C)(=O)=O)nc12` yielded an RP-LC retention time of 804 s.

On to `CNC(=O)c1cc(=O)[nH]c2c(Cl)cccc12`, for which the RP-LC retention time came to 596 s.

`O=C1N(c2cccc(F)c2)c2ncccc2S(=O)(=O)N1Cc1ccc(F)cc1` had an RP-LC retention time of 1040 s.

Compound `C#CCOCC1CCN(C(=O)Cc2noc3ccccc23)CC1` displayed an RP-LC retention time of 761 s.

With `c1cc(-c2nc3c(c(N4CCSCC4)n2)CCC3)ccn1`, the RP-LC retention time is 675 s.

On to `CC(C)c1nc2cccnc2n1CCN1CCN(C(=O)Nc2ccccc2Cl)CC1`, for which the RP-LC retention time came out at 607 s.

With `CCc1onc(C)c1C1CCCN1C(=O)Nc1ccc(C)cc1` (stereo not given), the RP-LC retention time was determined as 844 s.

On to `CCN1C(=O)c2ccccc2Oc2ccc(C(=O)NCc3ccco3)cc21`, for which the RP-LC retention time was found to be 843 s.

For the compound `Cc1ccc(C(=O)NC2CCN(c3cc(-c4cccs4)[nH]n3)C2)c(C)c1` (stereo not given), the RP-LC retention time is 742 s.

Compound `CCC(C)NC(=O)c1cn(C)nc1S(=O)(=O)N1CCN(c2cc(Cl)ccc2C)CC1` (stereo not given) registered an RP-LC retention time of 1150 s.

On to `O=C(NCCC1=CCCCC1)C1CCN(c2ccncc2)CC1`, for which the RP-LC retention time came out at 638 s.

Consider `COc1ccc(OC)c(NC(=O)c2csc(-c3ccc(C)n3C)n2)c1`, for which the RP-LC retention time stood at 1230 s.

`Cc1cc(-c2nnc(-c3ccc(F)cc3)o2)c(C)n1CC(=O)NCc1cccc(F)c1`: the RP-LC retention time is 940 s.

`O=C(c1cccnc1)N1CCCn2nc(-c3ccc(Cl)cc3)cc2C1` registered an RP-LC retention time of 739 s.

Take `O=C(NCCc1cccs1)C1CCCN(C(=O)c2cccn2-c2cccnc2)C1` (stereo not given): the RP-LC retention time amounted to 848 s.

In the case of `CC1CCN(S(=O)(=O)N2CCCC(C(=O)NCCCN3CCc4ccccc4C3)C2)CC1` (stereo not given), the RP-LC retention time came out at 714 s.

`CCc1noc2nc(C)n(CC(=O)NCc3ccc(F)cc3)c(=O)c12` displayed an RP-LC retention time of 797 s.

`O=C(CN1CCN(c2ccccn2)CC1)Nc1nccs1`: the RP-LC retention time worked out at 555 s.

Compound `COC(=O)c1ccc2c(=O)n(-c3ccc(C)cc3)c(N3CCCCCC3)nc2c1` displayed an RP-LC retention time of 1340 s.

With `O=C(NCCCN1CCCC1=O)C1CCN(c2cncnc2N2CCCCC2)CC1`, the RP-LC retention time is 582 s.

In turn, `O=C(Cn1cnc2nc(N3CCC(C(=O)NC4CC4)CC3)sc2c1=O)Nc1ccc(F)cc1F` came in with an RP-LC retention time of 651 s.

Compound `Cn1c(=O)c(N2CCC(NC(=O)Nc3ccc(Cl)cc3)CC2)nc2cccnc21` returned an RP-LC retention time of 907 s.

For the compound `O=C1/C(=C/c2cc(Br)cc3c2OCOC3)Oc2cc(OC(=O)C3CC3)ccc21`, the RP-LC retention time is 1200 s.

Regarding `O=c1c(NCCc2cccnc2)nc2ccncc2n1Cc1ccccc1`, the RP-LC retention time was determined as 539 s.

The compound `Cc1[nH]c(C(=O)N2CCC(CC(=O)NCc3ccc(Cl)cc3)CC2)c(C)c1C(=O)OC(C)C` showed an RP-LC retention time of 878 s.

Take `COCCCNC(=O)c1ccc(-c2nc(CN3CCc4ccccc43)c(C)o2)cc1`: the RP-LC retention time came to 951 s.

Compound `Cc1csc(-c2ccc(N3CCN(C(=O)c4cccc5[nH]ccc45)CC3)nc2)n1` showed an RP-LC retention time of 756 s.

`CCOC(=O)C1=C(CN(CC)Cc2ccccc2)NC(=O)NC1c1ccc(F)cc1` (stereo not given) came in with an RP-LC retention time of 696 s.

Take `Cc1ccc2c(C(=O)NCCc3cccs3)cc(NC(=O)C3CCC3)cc2n1`: the RP-LC retention time was 660 s.

`COc1ccc(-c2noc(-c3cccn4c(=O)c5ccccc5nc34)n2)cc1OC` showed an RP-LC retention time of 994 s.

As for `Cc1ccsc1C(=O)NCC12CCCC=C1N(CC1CC1)C(=O)CC2` (stereo not given), the RP-LC retention time worked out at 904 s.

Take `COc1cccc(CCC(=O)N2CCn3cnnc3C2)c1`: the RP-LC retention time came to 584 s.

For `Cc1nc(C)c(C(=O)NCC23CCC=C2N(C)C(=O)CC3)s1` (stereo not given), the RP-LC retention time is 651 s.

Consider `Cc1noc2ncnc(N3CCCC(C(=O)Nc4ccc(N5CCC(C)CC5)cc4)C3)c12` (stereo not given), for which the RP-LC retention time turned out to be 698 s.

The compound `Cc1ccc(-c2[nH]ncc2CN)cc1` returned an RP-LC retention time of 562 s.

`CC(C(=O)NCCCN1CCOCC1)n1c(=O)c(C(F)(F)F)nc2ccccc21` (stereo not given) returned an RP-LC retention time of 644 s.

Turning to `CS(=O)(=O)c1ccc(NCCCC(=O)O)c([N+](=O)[O-])c1`, the RP-LC retention time amounted to 624 s.

In the case of `O=[N+]([O-])c1ccc(CSc2nnc(-c3ccncc3)n2-c2ccccc2)cc1`, the RP-LC retention time was 706 s.

With `CCS(=O)(=O)N1CC(=O)N(c2ccc(F)cc2C)C(C)(C(=O)NC2CCCC2)C1` (stereo not given), the RP-LC retention time is 805 s.

On to `O=C(c1ccc(Cl)cc1)N(CCS(=O)(=O)N1CCNCC1)CC1CCCO1` (stereo not given), for which the RP-LC retention time was determined as 581 s.

For `NC(=O)C1CCN(C(=O)c2cc(-n3cnnn3)ccc2Cl)CC1`, the RP-LC retention time was found to be 592 s.

`O=C(Cc1nc(-c2ccccc2)n[nH]1)Nc1cccc(Cl)c1` registered an RP-LC retention time of 800 s.

With `C=CCc1c(C)nn(-c2nc(CC(=O)Nc3nc4ccccc4[nH]3)cs2)c1C`, the RP-LC retention time worked out at 764 s.
